Experimental findings from a melting point compilation (Tetko et al.; mined from patent text by program, amines drawn as free bases though some values may be those of a salt) are described below.

Bounds are passed on as bounds.

The compound `Cc1ccc2c(c1)C=Cc1cc(C)ccc1C2c1cn(-c2cc(NCC(=O)Nc3nc(CC(=O)O)cs3)nc(N(C)C)n2)c(=O)[nH]c1=O` registered a melting point of 220 °C.

With `O=C(Nc1ccncc1)c1ccc(OC(F)F)c2oc3ccccc3c12`, the melting point was found to be 230 °C.

Turning to `CS(=O)c1ccc(C(CC2CCCC2)C(=O)Nc2nccs2)cc1` (configuration not stated), the melting point was in the range of 170 to 173 °C.

Consider `O=C(O)COc1ccc2c(=O)c3ccccc3oc2c1Cl`, for which the melting point fell in the range of 280 to 281 °C.

On to `CC(C)(C)OC(=O)NCC(O)c1ccco1` (configuration not stated), for which the melting point was in the range of 89 to 90 °C.

`Cc1ccc(NC(=O)NCc2ccc3c(c2)CN(C2CCC(=O)NC2=O)C3=O)cc1C(F)(F)F` (configuration not stated) gave a melting point of 273 to 275 °C.

`CCc1cc2oc3cc(-c4ccccc4Cl)c4c(c3c2cc1O)C(=O)NC4=O`: the melting point lay in the range of 265 to 268 °C.

Consider `CO[C@@H]1CNCC[C@@H]1NC(=O)c1cc(Cl)c(N)c2c1OC(C)(C)C2` (relative stereo), for which the melting point was 179 °C.

For `CCCCCCCC(=O)c1ccc(CCO)cc1`, the melting point is 47.4 °C.

`COc1ccc(C2=NN(Cc3ccc(O)cc3)C(=O)[C@H]3CCCC[C@@H]23)cc1OC` (relative stereo) showed a melting point of 177 to 179 °C.

In the case of `CCNC(=S)NS(=O)(=O)c1cc(CCNC(=O)c2cc(Cl)ccc2OC)ccc1-c1ccccc1`, the melting point lay within 168 to 170 °C.

The compound `COc1ccc(S(=O)(=O)N(CCN2CCC(C(=O)c3ccc(F)cc3)CC2)c2cccc(OC)c2)cc1` showed a melting point of 129 to 132 °C.

In turn, `CC(C#Cc1ccc(OCc2ccccc2)cc1)N(O)C(N)=O` (configuration not stated) yielded a melting point of 154 to 156 °C.

`Cc1cc(C#N)cc(-c2ccc3c(c2)C(C)(C)OC(=S)N3)c1` registered a melting point of 230 to 231 °C.

Take `CCOC(=O)c1[nH]cc2c1NC1=C(C(=O)CCC1)C2c1ccc(Sc2nc3cccnc3[nH]2)o1` (configuration not stated): the melting point was 190 to 202 °C.

The compound `COC(=O)CCn1cc(Cc2cccnc2)c2c(CCC(=O)OC(C)(C)C)cccc21` displayed a melting point of 80 to 82 °C.

As for `CC(=O)SCC(Cc1ccccc1C)C(=O)O` (configuration not stated), the melting point is 63 to 70 °C.

Compound `CN(C)S(=O)(=O)Nc1ccc2[nH]cc(CC#N)c2c1` came in with a melting point of 147 to 150 °C.

In turn, `CNC(=NS(=O)(=O)c1ccc(C)cc1)NCCSCc1[nH]cnc1C` had a melting point of 138 °C.

The compound `CCCc1cc(Cn2c(=O)ccc3c(CC)nc(CC)cc32)ccc1Oc1ccccc1CC(=O)OC` showed a melting point of 91 to 92 °C.

Turning to `O=C(NO)C(CN1C(=O)CNC1=O)CS(=O)(=O)c1ccc(-c2ccc(Cl)cc2)cc1` (configuration not stated), the melting point fell in the range of 150 to 156 °C.

Regarding `O=C1CCC(c2ccc(CCN3CCN(c4ncccn4)CC3)cc2)N1` (configuration not stated), the melting point is 182 to 183 °C.

For `COc1cc2c(cc1OC)CN(c1nc(N)c3cc(OC)c(OC)c(OC)c3n1)CC2`, the melting point came to 204 °C.

As for `CNC(=O)C1=CC(CF)(CF)Oc2ccc([N+](=O)[O-])cc21`, the melting point lay in the range of 178 to 179 °C.

The compound `CC12CCC(C(=O)O)=CC1=CCC1C2CCC2(C)C(C(=O)CCC3CCCCC3)CCC12` (configuration not stated) yielded a melting point of 247 °C.

The compound `O=C(NN1CCN(C(=O)Cl)C1=O)OCc1ccccc1` showed a melting point of 102 to 105 °C.

For the compound `O=C(CBr)c1ccc(OC2CCCCO2)cc1` (racemic), the melting point lay within 102 to 104 °C.

In turn, `COCCN1CCN(c2ccc(N3C[C@H](CNC(C)=O)OC3=O)cc2F)CC1` displayed a melting point of 144 to 146 °C.

Regarding `CC(=O)c1c(-c2cccc([N+](=O)[O-])c2)cc(C(=O)NCCN2CCOCC2)nc1C`, the melting point lay within 107 to 110 °C.

As to `CCCCCC[C@@H]1C[C@H](c2ccc(OC)cc2)C(=O)O1`, the melting point is 35 to 36 °C.

Compound `CSc1nc(=O)n(CC(=O)O)cc1F` had a melting point of 244 to 245 °C.

Compound `CSC1C(=O)Nc2c(Nc3ccccc3Cl)cccc21` (configuration not stated) showed a melting point of 151 to 153 °C.

As to `COc1cccc(-c2nc(-c3ccoc3)n[nH]2)c1`, the melting point lay in the range of 169 to 171 °C.

The compound `O=S1(=O)N(CCCCBr)c2ccccc2N1c1ccc(Cl)cc1` showed a melting point of 65 to 68 °C.

Turning to `COCCO[C@@H]1c2ccc3c(nc(C)n3C)c2O[C@H](c2ccccc2)[C@H]1OC(=O)CN(C)C`, the melting point is 175 °C.

`C1=C(c2ccccc2)CSS1` registered a melting point of 122 to 124 °C.

The compound `Cc1ccc([N+](=O)[O-])cc1Nc1nccc(-c2cncc(Br)c2)n1` had a melting point of 206 to 208 °C.

On to `CCCn1cc2c(C3C(=O)Nc4ccc(Br)cc43)nc(NCCN3CCOCC3)nc2n1` (configuration not stated), for which the melting point lay within 299 to 303 °C.

With `COc1cc2c(Nc3ccc(Cl)cc3F)ncnc2cc1OCCNC1CCCC1`, the melting point was 171 to 173 °C.

In turn, `O=C1c2c([N+](=O)[O-])cccc2S(=O)(=O)N1CCO` showed a melting point of 140 to 141 °C.

In the case of `CN(C)c1ccc(NC(=O)CCn2c(-c3ccc(Cl)cc3)nc3cccnc32)cc1`, the melting point was 216 to 218 °C.

The compound `O=C(NCCOc1ccc(CC(OCc2ccccc2)C(=O)O)cc1)c1ccc(-c2ccccn2)cc1` (configuration not stated) had a melting point of 138 to 139 °C.

`CCCCOc1c(CNC(=O)OC(C)(C)C)n(CC2CC2)c(=O)c2ccc(Br)cc12` returned a melting point of 118 to 119 °C.

As to `O=C(O)Cc1csc(Nc2ccc(Cl)c(C(F)(F)F)c2)n1`, the melting point lay in the range of 108 to 112 °C.

The compound `c1ccc(CSc2nc(SCc3ccccc3)n(-c3ncccn3)n2)cc1` registered a melting point of 86 to 88 °C.

As to `O=C(CCC(=O)N(CCO)CCO)N(CCO)CCO`, the melting point was 89 to 91 °C.

With `CCS(=O)(=O)c1nsc(NC(=O)N(C)C)c1C#N`, the melting point was 188 to 189 °C.

`CC(C)(C)Nc1c(NCc2ccc(Cl)c(Cl)c2)c(=O)c1=O` came in with a melting point of 302 to 303 °C.

The compound `CCCc1c(OCCCCCOc2ccc3oc(C(=O)O)cc3c2)ccc2c1OCCC2=O` gave a melting point of 192 to 195 °C.

`CCN(c1ccc(Cl)cc1C(O)c1ccccc1Cl)S(=O)(=O)c1ccc(OC)c(OC)c1` (configuration not stated) registered a melting point of 154 °C.

The compound `CCOC(=O)C(=CNc1ncnc2ccc(N(C(=O)CC(C)(C)C)C(=O)CC(C)(C)C)cc12)C(=O)OCC` yielded a melting point of 100 to 102 °C.

Turning to `CCC(=O)OCC1OC(n2cnc3c(OC)nc(N)nc32)C(O)C1O` (configuration not stated), the melting point came to 124 °C.

Turning to `Nc1ccc(NC(=O)NCc2ccc3c(c2)CN(C2CCC(=O)NC2=O)C3=O)cc1` (configuration not stated), the melting point is over 400 °C.

Turning to `ClCCc1nnc2ccccc2c1Cl`, the melting point was in the range of 81 to 82 °C.

`COc1cc2c(cc1OC(C)C)-c1c(Br)c3c(n1CC2)C(=O)N(C(C)(C)C)CCOC3`: the melting point was 160 to 162 °C.

Turning to `CC(C)(C)OC(=O)NCc1cccc(-c2nc(=O)c3ccccc3s2)n1`, the melting point was 160 to 162 °C.

`CCN(CC)CCNC(=O)c1ccc2cc(I)ccc2c1` gave a melting point of 105 to 107 °C.

For the compound `O=C(CCl)Nc1cc(C(=O)O)cc(OCc2ccccc2)c1C(=O)c1ccccc1`, the melting point is 214 to 216 °C.

For the compound `CCOC(=O)c1ncn(-c2nccs2)c1N`, the melting point lay within 120 to 123 °C.

Compound `O=C(O)CCc1conc1-c1ccc(C(F)(F)F)cc1` gave a melting point of 173 to 174 °C.

As to `CSc1c[nH]c2ccc(C)cc12`, the melting point lay in the range of 136 to 137 °C.

`Fc1ccc(Nc2ncnc3ccc(-n4cncn4)cc23)c(F)c1` returned a melting point of over 250 °C.

Turning to `CN1CCN(CC(=O)Nc2ccc3c(c2)C(=O)c2cc(NC(=O)CN4CCN(C)CC4)ccc2C3=O)CC1`, the melting point was 173 °C.

For `CN(C(=O)CNc1nc(-c2ccc(C(F)(F)F)cc2)nc(-c2ccccc2)c1Cl)C1CC1`, the melting point lay in the range of 188 to 189 °C.

The compound `Cc1[nH]cnc1CSCCN=C(NCCCc1c[nH]cn1)NC(=O)c1ccccc1` showed a melting point of 98.5 to 100 °C.

`Clc1ccc(Cl)c(-c2csc(NC3=NCCCN3)n2)c1` returned a melting point of 188 to 189 °C.

Turning to `CCNC(=O)c1sc(C)c(C)c1[Si](C)(C)C`, the melting point is 77 to 80 °C.

For the compound `N#Cc1c(N2CCc3ccccc3CC2)nc(NCC(F)(F)F)n(CC(F)(F)F)c1=O`, the melting point was over 200 °C.

`Cc1ncc(CSC(=O)c2ccccc2)c(C=O)c1O` came in with a melting point of 127 to 130 °C.

`CC(C)C1(C)NC(c2ccccc2C(=O)N(C)C)=NC1=O` (configuration not stated) returned a melting point of 144 to 146 °C.

Turning to `C=CC(=O)OCCCCCCCCOc1ccc(-c2ccc(OCCCCCCCCOC(=O)C=C)c(F)c2F)c(F)c1F`, the melting point was in the range of 60.5 to 61.4 °C.

In turn, `O=C(NCc1ccccc1)c1ccnc(NC(=O)c2ccc(OC(F)(F)F)cc2)c1` came in with a melting point of 151 to 153 °C.

For `CC(C)CC(NC(=O)N1CCCCCC1)C(=O)NC(Cc1ccc(C#Cc2ccccc2)cc1)C(=O)NC(C)(C)C` (configuration not stated), the melting point was in the range of 115 to 117 °C.

For the compound `OC1(c2ccccc2)CCN(CCC2Cc3ccccc3O2)CC1` (configuration not stated), the melting point turned out to be 107 °C.

With `O=c1c2ccc(Cl)cc2n(Cc2ccccc2)n2c(Br)ccc12`, the melting point is 148 to 149 °C.

The compound `CCOC(=O)c1c(SCC(=O)COC(C)=O)nc2c(F)c(F)c(F)cc2c1O` showed a melting point of 175 to 180 °C.

In the case of `N#CC(C(=O)NCc1ccccc1)C(=O)c1nn(-c2ccc(F)cc2)c2c1CSc1ccc(Cl)cc1-2` (configuration not stated), the melting point lay in the range of 216 to 218 °C.

Regarding `Cc1cccc(N2CCN([C@@H](Cc3ccc(OCCc4nc(-c5ccccc5)oc4C)cc3)C(=O)O)CC2)c1`, the melting point lay in the range of 205 to 207 °C.

`O=C(O)c1cc(S(=O)(=O)N2CCSCC2)ccc1Br`: the melting point was 195 to 198 °C.

As for `COc1ccc2c(c1)C(=O)c1nc3ccccc3c(=O)n1-2`, the melting point is 268 to 269 °C.

In turn, `O=c1cc(-c2nc3ccccc3[nH]2)oc2ccc(Cl)cc12` registered a melting point of 248 to 250 °C.

Compound `Cc1ccc(S(=O)(=O)OCC2COc3ccccc3O2)cc1` (configuration not stated) showed a melting point of 79 °C.

`COC(=O)CNC(=O)c1cncc(F)c1` displayed a melting point of 80 to 82 °C.

For the compound `CCNc1nc2ccc(CCc3cn4ccc(C)cc4n3)cc2o1`, the melting point lay in the range of 156 to 158 °C.

`Nc1ccc(OCC(=O)OCCO)cc1` displayed a melting point of 104 to 106 °C.

In the case of `O=C1CCNC(=O)C1C(=O)c1ccccc1` (configuration not stated), the melting point lay within 164 to 165 °C.

With `CO/C=C1/C(=O)NC(=O)c2cc(Br)ccc21`, the melting point lay in the range of 242 to 243 °C.
